One experiment deals with GRANTA. The experiment is described as follows: Cancer cell cytotoxicity assay, GRANTA. It counts as cell-based. The conditions noted are these: Mantle cell lymphoma. On the procedure: (§1) The effect of the compounds of the invention on tumor cells was determined by the assay described by Latham et al., Oncogene 12:827-837 (1996). Tumor cells K562 (chronic myelogenous leukemia; leukemia cell line +ve for Bcr-Abl) or DU145 (prostate cancer) were plated in 12-well dishes at a cell density of 2.5×10^4 cells well. The plated cells were treated 24 hours later with a compound of the invention dissolved in DMSO at multiple concentrations ranging from 0.01 μM to 100 μM. The plates were examined 96 hours later under an inverted microscope, Olympus CK-2 using a 10× objective, and compound activity was noted by physical observation. When necessary, the total number of viable cells was determined by trypsinizing the wells and counting the number of viable cells, as determined by trypan blue exclusion, using a hemacytometer. Where “Lower” and “Upper” value are provided in Table 5, the IC50 was determined to be within that range. […]
(§2) The cytotoxicity of Compound 42, (Z)-6-((2,6-dichlorobenzyl)sulfonyl)-2-(4-hydroxy-3-nitrobenzylidene)-2H-benzo[b][1,4]thiazin-3(4H)-one, was determined according the assay method of Example 7 on the prostate (androgen dependent or independent), breast and pancreatic cancer cell lines listed in Table 6A, below, and the additional cell lines listed in Table 6B, below. […]

The target of another experiment is T1, CK2α2 (Homo sapiens, UniProt P19784).
T1 construct: CK2α2 (human full length protein; Invitrogen PV3624); purchased Invitrogen PV3624
Description: Casein kinase 2 inhibition, CK2α2 subunit (32P-ATP kinase assay). It counts as biochemical. The conditions noted are these: 20 μM cold ATP; 30 min preincubation, 20 min at 30° C. On the procedure:
The ability of Compound 42 to inhibit the activity of casein kinase 2 (CK2) was determined as follows using the catalytic CK2 subunits CK2α and CK2α2. Two and one half nanograms of CK2α (human full length protein; Invitrogen PV3248), 2.5 ng of a CK2α form containing amino acids 3-339) or 10 ng of CK2α2 (human full length protein; Invitrogen PV3624) was diluted into kinase buffer (20 mM Tris pH 7.5, 10 mM MgCl2, 0.01% NP-40, 1 mM EGTA, 2 mM DTT) and incubated with varying concentrations of Compound 42 at room temperature for 30 minutes. Kinase reactions were initiated by the addition of 1 μg of CK2 substrate α-synuclein or 40 μM CK2 synthetic peptide substrate (AnaSpec, San Jose, Calif.), 20 μM cold ATP, and 20 μCi γ-^32P-ATP. The reactions were incubated at 30° C. for 20 minutes, terminated by the addition of 2× Laemmle sample buffer, boiled for 2 minutes, resolved by 12% acrylamide SDS-PAGE, and subjected to autoradiography.

For the next experiment, the system named is DU145 (prostate cancer). Description: Cytotoxicity assay, DU145 tumor cells. The conditions noted are these: Homo sapiens. It counts as cell-based. As to the method: (§3) The effect of the compounds of the invention on tumor cells was determined by the assay described by Latham et al., Oncogene 12:827-837 (1996). Tumor cells K562 (chronic myelogenous leukemia; leukemia cell line +ve for Bcr-Abl) or DU145 (prostate cancer) were plated in 12-well dishes at a cell density of 2.5×10^4 cells well. The plated cells were treated 24 hours later with a compound of the invention dissolved in DMSO at multiple concentrations ranging from 0.01 μM to 100 μM. The plates were examined 96 hours later under an inverted microscope, Olympus CK-2 using a 10× objective, and compound activity was noted by physical observation. When necessary, the total number of viable cells was determined by trypsinizing the wells and counting the number of viable cells, as determined by trypan blue exclusion, using a hemacytometer. Where “Lower” and “Upper” value are provided in Table 5, the IC50 was determined to be within that range. When only a “Lower” value is provided and no “Upper” value is listed, the IC50 was that value, or less than or greater than that value, as set forth in the Table.
(§4) The cytotoxicity of Compound 42, (Z)-6-((2,6-dichlorobenzyl)sulfonyl)-2-(4-hydroxy-3-nitrobenzylidene)-2H-benzo[b][1,4]thiazin-3(4H)-one, was determined according the assay method of Example 7 on the prostate (androgen dependent or independent), breast and pancreatic cancer cell lines listed in Table 6A, below, and the additional cell lines listed in Table 6B, below. The human mesenchymal stem cell line HMSC.hTERT and normal human fibroblast cell line HFL was included in the test.

For another experiment, the system named is HFL. The experiment is described as follows: Cytotoxicity assay, normal human fibroblast cell line HFL. Type of experiment: cell-based. As to the method:
as §1, §2

Experiment [1] has as its system K562 (chronic myelogenous leukemia; leukemia cell line +ve for Bcr-Abl). Description: Cytotoxicity assay, K562 tumor cells. The conditions noted are these: Homo sapiens. Type of experiment: cell-based. As to the method:
as §3, §4

Another experiment has as its system VCAP. The experiment is described as follows: Cancer cell cytotoxicity assay, VCAP. It counts as cell-based. The conditions noted are these: Homo sapiens, Prostate Cancer. As to the method: as §1, §2
In another experiment the target is T2, CDK9 (Homo sapiens, UniProt P50750).
T2 construct: CDK9 (human full length protein; Invitrogen PV4335); purchased Invitrogen PV4335
Description: CDK9 inhibition (32P-ATP kinase assay). It counts as biochemical. The conditions noted are these: PDKtide substrate, 20 μM cold ATP. On the procedure:
The ability of Compound 42 to inhibit the activity of the kinase CDK9 was determined as follows. Twenty-five nanograms of CDK9 (human full length protein; Invitrogen PV4335) was diluted into kinase buffer (20 mM Tris pH 7.5, 10 mM MgCl2, 0.01% NP-40, 1 mM EGTA, 2 mM DTT) and incubated with varying concentrations of Compound 42 at room temperature for 30 minutes. The kinase reactions were initiated by the addition of 20 μM of CDK9/Cyclin K specific synthetic peptide substrate (PDKtide, P10-58, SignalChem), 20 μM cold ATP, and 20 μCi γ-32P-ATP. The reactions were incubated at 30° C. for 20 minutes and terminated by the addition of 0.5M o-Phosphoric acid. 10 μl of the reaction mixture was spotted on a P-30 Filtermat (PerkinElmer) and developed using autoradiography or phosphorimaging.

A further experiment has as its system PC3. The experiment is described as follows: Cancer cell cytotoxicity assay, PC3. Type of experiment: cell-based. The conditions noted are these: Homo sapiens, PC-3; PC3, Prostate Cancer. On the procedure:
as §1, §2

A further experiment relates to MDA.MB-468. Description: Cancer cell cytotoxicity assay, MDA.MB-468. It counts as cell-based. The conditions noted are these: Homo sapiens; MDA.MB-468, Breast Cancer. On the procedure: as §1, §2
Another experiment relates to 22Rv1. Description: Cancer cell cytotoxicity assay, 22Rv1. It counts as cell-based. The conditions noted are these: Homo sapiens; 22Rv1, Prostate Cancer. As to the method:
as §1, §2

In experiment [2] the test system is MDA.MB-231 breast cancer cells. Description: Cell cycle arrest in cancer cells. The conditions noted are these: increasing concentrations. It counts as cell-based. The source says: MDA.MB-231 breast cancer cells treated with increasing concentrations Compound 42
Another experiment has as its system BT-474. Description: Cancer cell cytotoxicity assay, BT-474. Type of experiment: cell-based. The conditions noted are these: Homo sapiens; BT-474, Breast Cancer. On the procedure:
as §1, §2

The next experiment concerns RPWE-1. The experiment is described as follows: Cancer cell cytotoxicity assay, RPWE-1. Type of experiment: cell-based. The conditions noted are these: RPWE-1, Normal prostate epithelium. On the procedure:
as §1, §2

The test system of another experiment is MiaPaca 2. The experiment is described as follows: Cancer cell cytotoxicity assay, MiaPaca 2. It counts as cell-based. The conditions noted are these: Homo sapiens, MIA PaCa-2; MiaPaca 2, Pancreatic Cancer. On the procedure:
as §1, §2

The subject of the next experiment is H23. The experiment is described as follows: Cancer cell cytotoxicity assay, H23. It counts as cell-based. The conditions noted are these: Homo sapiens, NCI-H23; H23, Non-small cell lung cancer. On the procedure:
as §1, §2

Another experiment deals with HCT-116. Description: Cancer cell cytotoxicity assay, HCT-116. It counts as cell-based. The conditions noted are these: Homo sapiens; HCT-116, Colon cancer. On the procedure:
as §1, §2

Another experiment has as its system LnCap. The experiment is described as follows: Cancer cell cytotoxicity assay, LnCap. Type of experiment: cell-based. The conditions noted are these: Homo sapiens, Prostate Cancer (Androgen Dependent). On the procedure:
as §1, §2

Another experiment relates to U266B1. Description: Cancer cell cytotoxicity assay, U266B1. Type of experiment: cell-based. The conditions noted are these: U266B1, Multiple Myeloma. As to the method:
as §1, §2

The next experiment relates to A549. The experiment is described as follows: Cancer cell cytotoxicity assay, A549. Type of experiment: cell-based. The conditions noted are these: Homo sapiens; A549, Non-small cell lung cancer. As to the method:
as §1, §2

T1 sequence (P19784 whole entry): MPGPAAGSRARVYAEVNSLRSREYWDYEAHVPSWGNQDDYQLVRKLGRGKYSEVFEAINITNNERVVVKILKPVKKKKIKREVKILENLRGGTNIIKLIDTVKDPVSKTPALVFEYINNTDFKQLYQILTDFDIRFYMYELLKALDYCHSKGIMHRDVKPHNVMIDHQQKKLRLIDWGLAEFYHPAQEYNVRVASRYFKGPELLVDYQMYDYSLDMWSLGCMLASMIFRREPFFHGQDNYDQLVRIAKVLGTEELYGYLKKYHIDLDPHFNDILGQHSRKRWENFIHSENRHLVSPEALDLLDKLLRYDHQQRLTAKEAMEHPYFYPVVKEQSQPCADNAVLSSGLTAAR
T2 sequence (P50750 whole entry): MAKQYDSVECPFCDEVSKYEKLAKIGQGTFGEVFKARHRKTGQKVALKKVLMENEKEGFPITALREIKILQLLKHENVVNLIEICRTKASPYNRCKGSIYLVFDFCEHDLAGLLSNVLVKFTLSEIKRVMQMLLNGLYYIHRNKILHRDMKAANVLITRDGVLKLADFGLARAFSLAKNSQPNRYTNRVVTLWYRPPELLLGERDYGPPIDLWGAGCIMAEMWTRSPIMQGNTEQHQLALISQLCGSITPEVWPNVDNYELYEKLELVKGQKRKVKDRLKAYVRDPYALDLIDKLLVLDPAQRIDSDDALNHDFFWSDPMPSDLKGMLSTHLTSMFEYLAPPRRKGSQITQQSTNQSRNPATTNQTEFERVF
T2 sequence (O75909 whole entry partner): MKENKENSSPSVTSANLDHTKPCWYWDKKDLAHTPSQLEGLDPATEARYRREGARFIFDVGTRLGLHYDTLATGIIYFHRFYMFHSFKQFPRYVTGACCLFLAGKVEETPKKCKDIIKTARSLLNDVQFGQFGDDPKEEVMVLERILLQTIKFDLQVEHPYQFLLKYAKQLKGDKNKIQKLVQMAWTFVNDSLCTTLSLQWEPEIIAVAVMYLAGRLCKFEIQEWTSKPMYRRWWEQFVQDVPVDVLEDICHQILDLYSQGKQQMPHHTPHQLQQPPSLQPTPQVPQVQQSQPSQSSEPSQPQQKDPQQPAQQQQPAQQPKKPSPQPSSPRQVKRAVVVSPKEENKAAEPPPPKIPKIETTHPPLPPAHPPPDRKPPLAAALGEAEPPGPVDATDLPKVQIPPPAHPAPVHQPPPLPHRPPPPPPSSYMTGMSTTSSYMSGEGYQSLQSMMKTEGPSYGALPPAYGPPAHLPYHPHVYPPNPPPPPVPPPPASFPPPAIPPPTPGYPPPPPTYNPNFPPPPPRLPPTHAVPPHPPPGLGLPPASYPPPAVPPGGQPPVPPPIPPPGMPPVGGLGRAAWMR

`O=C1Nc2cc(S(=O)(=O)Cc3c(Cl)cccc3Cl)ccc2S/C1=C\c1ccc(O)c([N+](=O)[O-])c1` [Compound 42, (Z)-6-((2,6-dichlorobenzyl)sulfonyl)-2-(4-hydroxy-3-nitrobenzylidene)-2H-benzo[b][1,4]thiazin-3(4H)-one]: the 50% growth inhibitory concentration (GI50) in the experiment on GRANTA was 80 nM; in the experiment with DU145 (prostate cancer) (DU-145, Prostate Cancer (Androgen Independent)), 160 nM; with HFL (Homo sapiens, Normal Fibroblast) it was above 10000 nM; in experiment [1] (K562, Chronic myelogenous leukemia), 160 nM; with VCAP it was 180 nM; in the experiment with PC3 it was 160 nM. The GI50 worked out at 200 nM with MDA.MB-468; 500 nM with 22Rv1; 200 nM in the experiment with BT-474; 100 nM with RPWE-1; 90 nM in the experiment with MiaPaca 2; 65 nM in the experiment on H23. Besides, the concentration for 50% growth inhibition (GI50) with HCT-116 is 150 nM; in the experiment on LnCap, 250 nM; with U266B1, 100 nM; in the experiment on A549 it was 160 nM. For the same molecule, the IC50 on CK2α2 is 83.1 nM; in the experiment on DU145 (prostate cancer) (DU-145, 96 h treatment, lower limit of the IC50 range, or the IC50 itself (or its bound) where no Upper value is listed, read-out: DU145 IC50 (μm) Lower (μm)), 150 nM; in experiment [1] (K562, 96 h treatment, lower limit of the IC50 range, or the IC50 itself (or its bound) where no Upper value is listed, read-out: K562 IC50 (μm) Lower (μm)), 100 nM; on CDK9 it was 93.7 nM. Also, in the experiment with HFL, the “cell death in the normal human fibroblast cell line” value was “did not cause cell death”. Also, the “cell cycle arrest in cancer cells” value in experiment [2] is given as “induces cell cycle arrest”.

Broadly, the GI50 is the concentration giving 50% growth inhibition. A lower GI50 goes with greater sensitivity of the cells. By IC50 is commonly meant the point on the concentration scale where inhibition reaches its midpoint.

For the origin of these results see patent US9242945B2, “Substituted 2-benzylidene-2H-benzo[b][1,4]thiazin-3(4H)-ones, derivatives thereof, and therapeutic uses thereof” (TEMPLE UNIVERSITY—OF THE COMMONWEALTH SYSTEM OF HIGHER …, priority 2011, dated 2016).
